The results in this text go back to patent US20240398812A1 (Caraway Therapeutics, Inc., priority 2021, published 2024).

Structures are written as SMILES.

Holding throughout (assay type): cell-based
One assay concerns the target T1, TRPML2 (Homo sapiens, UniProt Q8IZK6).
T1 construct: expressed in transfected cells
T1 sequence (Q8IZK6 1-566): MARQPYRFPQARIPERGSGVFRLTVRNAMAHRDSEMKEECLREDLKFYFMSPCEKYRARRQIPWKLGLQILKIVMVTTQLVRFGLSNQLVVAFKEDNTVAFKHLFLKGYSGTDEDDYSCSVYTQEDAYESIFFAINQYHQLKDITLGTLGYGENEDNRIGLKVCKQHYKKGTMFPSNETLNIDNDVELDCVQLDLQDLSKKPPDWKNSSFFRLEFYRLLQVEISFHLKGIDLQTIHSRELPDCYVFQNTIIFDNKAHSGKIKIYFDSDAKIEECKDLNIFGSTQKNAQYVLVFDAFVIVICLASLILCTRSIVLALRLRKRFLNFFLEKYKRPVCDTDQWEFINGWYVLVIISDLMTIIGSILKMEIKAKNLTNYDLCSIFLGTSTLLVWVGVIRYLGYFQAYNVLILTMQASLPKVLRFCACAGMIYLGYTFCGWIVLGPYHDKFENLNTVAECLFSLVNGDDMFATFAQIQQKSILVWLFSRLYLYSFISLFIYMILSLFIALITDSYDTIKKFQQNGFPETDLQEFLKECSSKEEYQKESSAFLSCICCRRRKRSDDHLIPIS
Briefly: Fluorescent TRPML2 assay (as for TRPML1). The protocol: HEK-293 Trex cells were stably transfected with a construct consisting of the human coding sequence for TRPML1 cloned into the tet-inducible plasmid pCDNA5 T/O. Mutations were introduced into the TRPML1 sequence to facilitate expression on the cell surface (Silvia Vergarajauregui, Rosa Puertollano Traffic. 2006 March; 7 (3): 337-353). Briefly, the cells are cultured in 150 mm round tissue culture dishes containing 20 mL of media. The day before the assay the cells are rinsed with DPBS —Ca—Mg and then treated briefly with Trypsin-EDTA. The Trypsin-EDTA is diluted with growth media, and cells are counted. 38×10^6 cells are re-plated into 150 mm round tissue culture dishes in media containing 0.5 ug/mL doxycycline to induce expression of hTRPML1.
The day of the experiment cells are lifted from the plates as above and collected by centrifugation. The cells are then suspended in dye loading buffer consisting of Ringer's solution supplemented with 0.1% Pluronic Acid and 1 micromolar Fluo4-AM dye. Cells are loaded for ˜60 minutes in the dark with occasional mixing. The cells are collected by centrifugation, the loading media aspirated, and the cells resuspended in 25 mL Ringer's solution and incubated ˜60 minutes in the dark. The cells are again collected by centrifugation, rinsed in Ringer's Solution and resuspended to 0.2×10^6 cells/mL in modified Ringer's solution containing 10 mM calcium.
Compounds are dissolved to a concentration of 10 millimolar with DMSO. Compound plates are created by dispensing compounds into 384 well black wall clear bottom plates (Greiner 781091). Positive and negative controls are included on each plate. Typically, different amounts of each compound are tested ranging from 100 nanoMoles (20 micromolar final concentration) decreasing in half-log steps to 31 picoMoles (6 nanomolar final concentration). Each concentration is typically tested in triplicate.
50 microliters of dye-loaded cells are dispensed into each well of the compound assay plate created above. The fluorescence in each well is then determined with an excitation wavelength of 480 nm and an emission wavelength of 540 nm using either a Molecular Devices SpectraMax multimode plate reader or a Hamamatsu FDSS/uCell plate imager.
The resulting fluorescence for each well is exported as an ascii file and loaded into our LIMS for analysis. The percent activity of each compound at each concentration is determined by comparison to the positive and negative control wells included in each plate.
Assays for TRPML2 and TRPML3 were performed as above for TRPML1, by substituting the appropriate TRPML2 or TRPML3 subtype for the TRPML1.
EC50 values were calculated using a non-linear regression of Prism. In the table, “A” indicates an EC50 of less than 100 nM, “B” indicates an EC50 range from 100 nM to 500 nM; “C” indicates an EC50 range from 500 nM to 2 μM; and “D” indicates an EC50 greater than 2 μM.

A further assay has as its target T2, TRPML3 (Homo sapiens, UniProt Q8TDD5).
T2 construct: expressed in transfected cells
T2 sequence (Q8TDD5 1-553): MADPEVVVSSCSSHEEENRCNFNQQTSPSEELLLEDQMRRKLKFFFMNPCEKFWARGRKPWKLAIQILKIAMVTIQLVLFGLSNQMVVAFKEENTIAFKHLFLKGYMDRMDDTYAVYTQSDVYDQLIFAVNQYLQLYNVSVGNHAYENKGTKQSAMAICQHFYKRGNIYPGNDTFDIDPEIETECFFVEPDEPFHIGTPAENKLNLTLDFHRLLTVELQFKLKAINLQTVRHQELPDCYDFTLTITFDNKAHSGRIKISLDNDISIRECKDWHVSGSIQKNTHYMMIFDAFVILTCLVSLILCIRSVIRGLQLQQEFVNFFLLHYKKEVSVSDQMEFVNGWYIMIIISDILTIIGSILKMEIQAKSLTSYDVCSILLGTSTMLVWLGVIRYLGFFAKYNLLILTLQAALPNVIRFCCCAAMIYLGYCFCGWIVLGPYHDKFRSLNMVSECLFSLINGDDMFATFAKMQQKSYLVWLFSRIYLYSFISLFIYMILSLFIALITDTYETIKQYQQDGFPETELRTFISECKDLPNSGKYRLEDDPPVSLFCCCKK
Description: Fluorescent TRPML3 assay (as for TRPML1). The method, boiled down:
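HEK-293 Trex cells with tet-inducible (0.5 ug/mL doxycycline, overnight) surface-targeted mutant channel, Fluo4-AM loaded, suspended in Ringer's with 10 mM calcium. Compounds tested 20 µM to 6 nM final, half-log steps, triplicate; fluorescence at ex 480/em 540 nm. EC50 by non-linear regression of percent activity versus plate controls.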

The next assay has as its target human TRPML1 (Homo sapiens, UniProt Q9GZU1). Description: Fluorescent TRPML1 assay (Fluo4-AM calcium fluorescence, HEK-293 Trex cells). A digest of the protocol: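 Tet-inducible HEK-293 Trex cells stably expressing surface-targeted mutant human TRPML1, induced with 0.5 ug/mL doxycycline overnight, loaded with Fluo4-AM and suspended in Ringer's with 10 mM calcium. Compounds tested from 20 μM to 6 nM final, half-log steps, in triplicate; fluorescence (ex 480/em 540) normalised to plate controls, EC50 by non-linear regression.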

human TRPML1, sequence (Q9GZU1 whole entry L15A/L16A/L577A/L578A, form open): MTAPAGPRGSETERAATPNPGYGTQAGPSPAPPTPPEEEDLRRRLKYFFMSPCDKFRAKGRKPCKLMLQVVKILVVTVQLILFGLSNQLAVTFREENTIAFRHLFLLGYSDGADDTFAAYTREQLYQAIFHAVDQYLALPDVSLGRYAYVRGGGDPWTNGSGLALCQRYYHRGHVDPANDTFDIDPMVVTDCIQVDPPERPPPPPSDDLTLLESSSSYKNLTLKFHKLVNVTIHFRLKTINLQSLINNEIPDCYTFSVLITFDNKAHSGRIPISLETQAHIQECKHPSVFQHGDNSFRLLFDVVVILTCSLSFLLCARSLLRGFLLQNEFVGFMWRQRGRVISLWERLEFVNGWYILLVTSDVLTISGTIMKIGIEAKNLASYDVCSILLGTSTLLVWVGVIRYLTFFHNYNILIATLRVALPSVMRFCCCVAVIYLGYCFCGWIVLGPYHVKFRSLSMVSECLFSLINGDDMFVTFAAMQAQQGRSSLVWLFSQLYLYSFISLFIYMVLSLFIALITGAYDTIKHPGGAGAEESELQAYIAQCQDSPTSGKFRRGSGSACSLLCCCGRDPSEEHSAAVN

The EC50 is the midpoint of the concentration-response curve. As for `C[C@H]1CN(C(=O)[C@H](F)C(C)(C)C)CCN1c1ncnc2c1c(C1CC1)cn2-c1cc(C#N)ccn1` (single isomer, unassigned) [Compound 202], the EC50 was below 100 nM on TRPML2 (Table 3, compounds 201-283); below 100 nM on TRPML3 (Table 3, compounds 201-283); below 100 nM on human TRPML1 (Table 3, compounds 201-283).

On to `C[C@H]1CN(C(=O)[C@@H](F)C(C)(C)C)CCN1c1ncnc2c1c(C1CC1)cn2-c1cc(C#N)ccn1` (single isomer, unassigned) [Compound 203], for which the EC50 at TRPML2 (Table 3, compounds 201-283) was below 100 nM; on TRPML3 (Table 3, compounds 201-283), below 100 nM; on human TRPML1 (Table 3, compounds 201-283), below 100 nM.

In the case of `[2H]C([2H])([2H])C([2H])(C(=O)N1C[C@H](C)N(c2ncnc3c2c(-c2ccccc2F)cn3-c2cc(C#N)ccn2)C[C@H]1C)C([2H])([2H])[2H]` (single isomer, unassigned) [Compound 233], the EC50 at TRPML2 (Table 3, compounds 201-283) is below 100 nM; on TRPML3 (Table 3, compounds 201-283), below 100 nM.

In the case of `[2H]C([2H])([2H])C(C(=O)N1C[C@H](C)N(c2ncnc3c2c(-c2ccccc2F)cn3-c2cc(C#N)ccn2)C[C@H]1C)C([2H])([2H])[2H]` (single isomer, unassigned) [Compound 234], the EC50 at TRPML2 (Table 3, compounds 201-283) is 100 to 500 nM; at TRPML3 (Table 3, compounds 201-283), below 100 nM.

Regarding `[2H]C([2H])([2H])[C@@H]1CN(c2ncnc3c2c(-c2ccccc2F)cn3-c2cc(C#N)ccn2)[C@@H](C)CN1C(=O)C(C)C` (single isomer, unassigned) [Compound 281], the EC50 on TRPML2 (Table 3, compounds 201-283) was 500 to 2000 nM; at TRPML3 (Table 3, compounds 201-283) it was 100 to 500 nM.

As to `CC(C)C(=O)N1CCN(c2ncnc3c2c(-c2ccccc2F)cn3-c2cc(C#N)ccn2)[C@@H](C)C1` [Compound 102, (S)-2-(5-(2-fluorophenyl)-4-(4-isobutyryl-2-methylpiperazin-1-yl)-7H-pyrrolo[2,3-d]pyrimidin-7-yl)isonicotinonitrile], the EC50 was 100 to 500 nM on TRPML2 (Table 3, compounds 101-177); below 100 nM at TRPML3 (Table 3, compounds 101-177); below 100 nM on human TRPML1 (Table 3, compounds 101-177).

Consider `C[C@H]1CN(C(=O)C(C)(C)C)CCN1c1ncnc2c1c(-c1ccccc1F)cn2-c1cc(C#N)ccn1` [Compound 103, (S)-2-(5-(2-fluorophenyl)-4-(2-methyl-4-pivaloylpiperazin-1-yl)-7H-pyrrolo[2,3-d]pyrimidin-7-yl)isonicotinonitrile], for which the EC50 at TRPML2 (Table 3, compounds 101-177) is below 100 nM; on TRPML3 (Table 3, compounds 101-177) it was below 100 nM; at human TRPML1 (Table 3, compounds 101-177) it was below 100 nM.

As to `C[C@H]1CN(C(=O)C(C)(C)C)CCN1c1ncnc2c1c(C1CC1)cn2-c1cc(C#N)ccn1` [Compound 104, (S)-2-(5-cyclopropyl-4-(2-methyl-4-pivaloylpiperazin-1-yl)-7H-pyrrolo[2,3-d]pyrimidin-7-yl)isonicotinonitrile], the EC50 is 500 to 2000 nM at TRPML2 (Table 3, compounds 101-177); below 100 nM at TRPML3 (Table 3, compounds 101-177); below 100 nM at human TRPML1 (Table 3, compounds 101-177).

As to `CC(C)C(=O)N1CCN(c2ncnc3c2c(-c2ccccc2F)cn3-c2cc(C#N)ccn2)C[C@H]1C` [Compound 107, (R)-2-(5-(2-fluorophenyl)-4-(4-isobutyryl-3-methylpiperazin-1-yl)-7H-pyrrolo[2,3-d]pyrimidin-7-yl)isonicotinonitrile], the EC50 on TRPML2 (Table 3, compounds 101-177) was 100 to 500 nM; on TRPML3 (Table 3, compounds 101-177), below 100 nM; at human TRPML1 (Table 3, compounds 101-177), below 100 nM.

For the molecule `CC(C)(C)C(=O)N1CCN(c2ncnc3c2c(-c2ccccc2F)cn3-c2cc(C#N)ccn2)CC1` [Compound 108, 2-(5-(2-fluorophenyl)-4-(4-pivaloylpiperazin-1-yl)-7H-pyrrolo[2,3-d]pyrimidin-7-yl)isonicotinonitrile], the EC50 was below 100 nM on TRPML2 (Table 3, compounds 101-177); below 100 nM on TRPML3 (Table 3, compounds 101-177); below 100 nM on human TRPML1 (Table 3, compounds 101-177).

On to `C[C@@H]1CN(c2ncnc3c2c(-c2ccccc2F)cn3-c2cc(C#N)ccn2)CCN1C(=O)C(C)(C)C` [Compound 109, (R)-2-(5-(2-fluorophenyl)-4-(3-methyl-4-pivaloylpiperazin-1-yl)-7H-pyrrolo[2,3-d]pyrimidin-7-yl)isonicotinonitrile], for which the EC50 is below 100 nM at TRPML2 (Table 3, compounds 101-177); below 100 nM on TRPML3 (Table 3, compounds 101-177); below 100 nM on human TRPML1 (Table 3, compounds 101-177).

With `C[C@H]1CN(C(=O)C2(F)CC2)CCN1c1ncnc2c1c(-c1ccccc1F)cn2-c1cc(C#N)ccn1` [Compound 115, (S)-2-(4-(4-(1-fluorocyclopropane-1-carbonyl)-2-methylpiperazin-1-yl)-5-(2-fluorophenyl)-7H-pyrrolo[2,3-d]pyrimidin-7-yl)isonicotinonitrile], the EC50 on TRPML2 (Table 3, compounds 101-177) was below 100 nM; on TRPML3 (Table 3, compounds 101-177) it was below 100 nM; at human TRPML1 (Table 3, compounds 101-177), below 100 nM.

Regarding `C[C@H]1CN(C(=O)C(C)(C)C)CCN1c1ncnc2c1c(-c1ccccn1)cn2-c1cc(C#N)ccn1` [Compound 117, (S)-2-(4-(2-methyl-4-pivaloylpiperazin-1-yl)-5-(pyridin-2-yl)-7H-pyrrolo[2,3-d]pyrimidin-7-yl)isonicotinonitrile], the EC50 at TRPML2 (Table 3, compounds 101-177) was 500 to 2000 nM; on TRPML3 (Table 3, compounds 101-177), 100 to 500 nM; at human TRPML1 (Table 3, compounds 101-177), below 100 nM.

Turning to `CC(C)C(=O)N1CCN(c2ncnc3c2c(-c2ccccc2)cn3-c2cc(C#N)ccn2)[C@@H](C)C1` [Compound 118, (S)-2-(4-(4-isobutyryl-2-methylpiperazin-1-yl)-5-phenyl-7H-pyrrolo[2,3-d]pyrimidin-7-yl)isonicotinonitrile], the EC50 was 500 to 2000 nM at TRPML2 (Table 3, compounds 101-177); below 100 nM at TRPML3 (Table 3, compounds 101-177); below 100 nM on human TRPML1 (Table 3, compounds 101-177).

On to `C[C@H]1CN(C(=O)C(C)(C)C)CCN1c1ncnc2c1c(-c1ccccc1)cn2-c1cc(C#N)ccn1` [Compound 120, (S)-2-(4-(2-methyl-4-pivaloylpiperazin-1-yl)-5-phenyl-7H-pyrrolo[2,3-d]pyrimidin-7-yl)isonicotinonitrile], for which the EC50 was 100 to 500 nM on TRPML2 (Table 3, compounds 101-177); below 100 nM on TRPML3 (Table 3, compounds 101-177); below 100 nM at human TRPML1 (Table 3, compounds 101-177).

As for `C[C@@H]1CN(c2ncnc3c2c(-c2ccccc2)cn3-c2cc(C#N)ccn2)CCN1C(=O)C(C)(C)C` [Compound 121, (R)-2-(4-(3-methyl-4-pivaloylpiperazin-1-yl)-5-phenyl-7H-pyrrolo[2,3-d]pyrimidin-7-yl)isonicotinonitrile], the EC50 on TRPML2 (Table 3, compounds 101-177) is 100 to 500 nM; on TRPML3 (Table 3, compounds 101-177), below 100 nM; on human TRPML1 (Table 3, compounds 101-177), below 100 nM.
